The values that follow come from patent US11492644B2, “Genetically induced nephron progenitors” (MURDOCH CHILDRENS RESEARCH INSTITUTE, priority 2017, dated 2022).

This data set relates to Cited1. In words: In situ reprogramming by renal pelvis hydrodynamic injection. To be noted: Cited1-CreERT2 BAC transgenic mice, 72 h post-injection. Type of data set: in vivo, mouse. The procedure: Renal pelvis hydrodynamic injection was performed as previously described (Woodard et al Sci Rep 2017, Woodard et al J. Vis. Exp. 2017) on 15 week-old Cited1-CreER^T2 BAC transgenic mice (Boyle et al Dev. Biol. 2008). Mice were assayed for presence of the GFP transgene at weaning (Transnetyx, Cordova, Tenn.). A solution of 50 ug of pT-mSES in 100 uL of buffer QR (Minis Bio, Madison, Wis.) was injected quickly into the renal pelvis of mice anesthetized with ketamine/xylazine. Mice were treated every 8-12 h with buprenorphine for pain management for 48 h and sacrificed at 72 h post-injection.
There were eGFP-positive cells with a similar morphology present in both QR-injected and pT-mSES-injected transgenic animals (FIG. 16, panels a and b). However, only in the pT-mSES-injected transgenic animals were there cells appearing to be derived from tubule-like structures that were eGFP-positive (FIG. 16c). In contrast, in wild-type, non-transgenic mice receiving either QR or pT-mSES, no positive eGFP cells could be found. Therefore, cellular reprogramming to an induced nephron progenitor state may be possible in vivo following gene delivery of Snai2, Six1 and Eya1.

For “pT-mSES: piggyBac transposon plasmid (SEQ ID NO:12) expressing mouse Six1, Snai2 and Eya1 from the elongation factor 1 alpha promoter”, the “eGFP expression from the Cited1 promoter” value is “induced eGFP expression indicative of Cited1 positivity”.
